This passage reports EC50 results from patent US11596611B2, “Hepatitis B antiviral agents” (ENANTA PHARMACEUTICALS, INC., priority 2017, dated 2023).

Where two headings read alike, the source gives them in different places. Some results are limits rather than exact numbers.

The test system of the test is HBV. Nature of the test: HepAD38 antiviral assay: reduction of viral product accumulation (virion DNA by qPCR, HBsAg or HBeAg by ELISA). The format is cell-based, hepatitis B virus. How it is done: Methods: HepAD38 cells are maintained as previously reported (Ladner et al, Antimicrob. Agents Chemother. 1997, […], 1715). Briefly, cells are passaged upon attaining confluency in DMEM/F12 media in the presence of 10% FBS, Penn/Strep, 250 μg/mL G418, and 1 ug/ml tetracycline. Novel compounds are screened by first washing cells three times with PBS to remove tetracycline, and plating in 96 well plates at 35,000 cells/well. Compounds dissolved in DMSO are then diluted 1:200 into wells containing cells. Five days after compound addition, material is harvested for analysis. For an extended 8 days analysis, cells are plated and treated as described above, but media and compound are refreshed on d2 and d5 post initial treatment.
On harvest day, virion DNA is obtained by lysing with Sidestep Lysis and Stabilization Buffer and then quantified via quantitative real time PCR. Commercially available ELISA kits are used to quantitate the viral proteins HBsAg (Alpco) or HbeAg (US Biological) by following the manufacturer's recommended protocol after diluting samples to match the linear range of their respective assays.

Setting [1] is: Hepatitis B virus, 120 h, HepAD38 cells, five days after compound addition, 50% reduction of viral product vs no drug controls, read-out: HepAD38 EC50.

With `COC(=O)N[C@H](C(=O)N1C2CCC1CC(S(=O)(=O)c1cc(C(=O)Nc3cc(F)c(F)c(F)c3)ccc1Cl)C2)C(C)C` (stereo partly shown) [Example 142], under “Hepatitis B virus, HePAD38, 120 h, read-out: HepAD38 EC50 (μM)”, the EC50 was in the range of 0.1 to 0.2 µM.

`O=C(Nc1ccc(F)c(F)c1)c1ccc(Cl)c(S(=O)(=O)[C@H]2CC3CCC(C2)[C@]3(O)C(O)c2ccncc2)c1` (stereo partly shown) [Example 286]: the EC50 under setting [1] was in the range of 0.1 to 0.2 µM.

`Nc1cc(NC(=O)c2ccc(Cl)c(S(=O)(=O)[C@H]3CC4CCC(C3)[C@]4(O)C(O)c3ncc[nH]3)c2)ccc1F` (stereo partly shown) [Example 287]: the EC50 under setting [1] is > 0.2 µM.

Take `CCC1(O)CC(S(=O)(=O)c2cc(C(=O)Nc3ccc(F)c(F)c3)ccc2Cl)C1` (stereo not shown) [Example 233]: the EC50 under setting [1] is > 0.2 µM.

Turning to `C[C@]1(O)C2CCC1C[C@@H](S(=O)(=O)c1cc(C(=O)Nc3ccc(F)c(F)c3)c(-c3cccnc3)cc1Cl)C2` [Example 102], the EC50 under setting [1] was > 0.2 µM.

In the case of `O=C(C[C@]1(O)C2CCC1C[C@@H](S(=O)(=O)c1cc(C(=O)Nc3cc(F)c(F)c(F)c3)ccc1Cl)C2)NC1COC1` [Example 110], the EC50 under setting [1] is < 0.104 µM.

As to `C[C@]1(O)C2CCC1C[C@@H](S(=O)(=O)c1cc(C(=O)Nc3cc(F)cc(F)c3)ccc1Cl)C2` [Example 105], under setting [1], the EC50 was < 0.104 µM.

Consider `C[C@@H](O)COCC1(O)CC(S(=O)(=O)c2cc(C(=O)Nc3ccc(F)c(F)c3)ccc2Cl)C1` (stereo partly shown) [Example 234], for which, under setting [1], the EC50 is > 0.2 µM.

Take `O=C(Nc1ccc(F)c(F)c1)c1ccc(Cl)c(S(=O)(=O)[C@H]2CC3CCC(C2)[C@]3(O)C(O)Cc2cccnc2)c1` (stereo partly shown) [Example 318]: the EC50 under setting [1] is > 0.2 µM.

As to `O=C(Nc1ccc(F)c(F)c1)c1ccc(Cl)c(S(=O)(=O)[C@H]2CC3CCC(C2)[C@]3(O)C(O)c2ccccc2)c1` (stereo partly shown) [Example 283], the half-maximal effective concentration (EC50) under setting [1] lay in the range of 0.1 to 0.2 µM.

As for `CC(C)(O)C(O)CNC(=O)C[C@]1(O)C2CCC1C[C@@H](S(=O)(=O)c1cc(C(=O)Nc3cc(F)c(F)c(F)c3)ccc1Cl)C2` (stereo partly shown) [Example 56], the concentration for a half-maximal effect (EC50) under setting [1] was in the range of 0.1 to 0.2 µM.

For the molecule `COC(=O)CNC(=O)[C@H]1C[C@H](S(=O)(=O)c2cc(C(=O)Nc3ccc(F)c(F)c3)ccc2Cl)C1` [Example 253a], the 50% effective concentration (EC50) under setting [1] was > 0.2 µM.

As to `C[C@@]1(O)C2CC[C@H]1C[C@H](S(=O)(=O)c1cc(C(=O)Nc3cnccn3)ccc1Cl)C2` [Example 214], the EC50 under setting [1] was > 0.2 µM.

As to `C[C@H](O)[C@@H](O)COC[C@]1(O)C2CCC1C[C@@H](S(=O)(=O)c1cc(C(=O)Nc3cc(F)c(F)c(F)c3)ccc1Cl)C2` (single isomer, unassigned) [Example 164], under setting [1], the EC50 was < 0.104 µM.

In the case of `C[C@]1(O)C2CCC1C[C@@H](S(=O)(=O)c1cc(C(=O)Nc3cccnn3)ccc1Cl)C2` [Example 213], the EC50 under setting [1] was > 0.2 µM.

For `COC(=O)N1CCC[C@H]1C(=O)N1C2CCC1CC(S(=O)(=O)c1cc(C(=O)Nc3cc(F)c(F)c(F)c3)ccc1Cl)C2` (stereo partly shown) [Example 143], the EC50 under setting [1] is > 0.2 µM.

As for `CC(=O)C(=O)[C@@]1(O)C2CC[C@H]1C[C@H](S(=O)(=O)c1cc(C(=O)Nc3ccc(F)c(F)c3)ccc1Cl)C2` [Example 336], the EC50 under setting [1] is < 0.104 µM.

With `O=C[C@]1(O)C2CCC1C[C@@H](S(=O)(=O)c1cc(C(=O)Nc3ccc(F)c(F)c3)ccc1Cl)C2` [Example 203], the EC50 under setting [1] is < 0.104 µM.

`COC(=O)N[C@@H](C)C(=O)NC[C@]1(O)C2CCC1C[C@@H](S(=O)(=O)c1cc(C(=O)Nc3ccc(F)c(F)c3)ccc1Cl)C2` [Example 159]: under setting [1], the concentration giving a half-maximal response (EC50) was < 0.104 µM.

As for `O=C(Nc1ccc(F)c(F)c1)c1ccc(Cl)c(S(=O)(=O)[C@@H]2CC3CC[C@@H](C2)[C@@]3(O)C(O)c2ncccc2C(F)F)c1` (stereo partly shown) [Example 349], the EC50 under setting [1] was in the range of 0.1 to 0.2 µM.

For the molecule `COC(=O)N[C@@H](CCC(N)=O)C(=O)NC[C@]1(O)C2CCC1C[C@@H](S(=O)(=O)c1cc(C(=O)Nc3cc(F)c(F)c(F)c3)ccc1Cl)C2` [Example 84], under setting [1], the EC50 was > 0.2 µM.

Consider `O=C(Nc1ccc(F)c(F)c1)c1ccc(Cl)c(S(=O)(=O)[C@H]2CC3CCC(C2)[C@]3(O)[C@@H](O)CO)c1` (single isomer, unassigned) [Example 175], for which, under setting [1], the EC50 was < 0.104 µM.

In the case of `O=C(Nc1cc(F)c(F)c(F)c1)c1ccc(Cl)c(S(=O)(=O)[C@H]2CC3CCC(C2)[C@]3(O)CNC(=O)C2CCOC2)c1` (stereo partly shown) [Example 87], under setting [1], the EC50 is < 0.104 µM.

Turning to `O=C(Nc1ccc(F)c(F)c1)c1ccc(Cl)c(S(=O)(=O)[C@H]2CC3CCC(C2)[C@]3(O)[C@@H](O)c2ccccn2)c1` (single isomer, unassigned) [Example 284a], the concentration for a half-maximal effect (EC50) under setting [1] is < 0.104 µM.

In the case of `CC(O)[C@@]1(O)C2CC[C@H]1C[C@H](S(=O)(=O)c1cc(C(=O)Nc3cc(F)c(F)c(F)c3)ccc1Cl)C2` (mixture of isomers) [Example 210], the EC50 under setting [1] is < 0.104 µM.

Turning to `CC(C)(O)CNC(=O)C[C@]1(O)CC[C@@H](CS(=O)(=O)c2cc(C(=O)Nc3ccc(F)c(F)c3)ccc2Cl)CC1` [Example 195], under setting [1], the EC50 is > 0.2 µM.

For `CC(C)([C@H]1CC[C@](C)(O)CC1)S(=O)(=O)c1cc(C(=O)Nc2ccc(F)c(F)c2)ccc1Cl` [Example 238], the EC50 under setting [1] is > 0.2 µM.

For the molecule `NC(=O)C[C@H](N)C(=O)NC[C@]1(O)C2CCC1C[C@@H](S(=O)(=O)c1cc(C(=O)Nc3cc(F)c(F)c(F)c3)ccc1Cl)C2` [Example 27], the EC50 under setting [1] was > 0.2 µM.

Regarding `C[C@@H](O)COCC1(O)CC(CS(=O)(=O)c2cc(C(=O)Nc3ccc(F)c(F)c3)ccc2Cl)C1` (stereo partly shown) [Example 209], under setting [1], the EC50 is > 0.2 µM.

Regarding `C[C@H](O)[C@H](O)[C@]1(O)C2CCC1C[C@@H](S(=O)(=O)c1cc(C(=O)Nc3ccc(F)c(F)c3)ccc1Cl)C2` (single isomer, unassigned) [Example 181], the EC50 under setting [1] was < 0.104 µM.

Consider `CC(C)(C)OC(=O)N1CC[C@H](O)[C@H]1C(=O)NC[C@@]1(O)C2CC[C@H]1C[C@H](S(=O)(=O)c1cc(C(=O)Nc3cc(F)c(F)c(F)c3)ccc1Cl)C2` [Example 77], for which the EC50 under setting [1] is > 0.2 µM.

`C[C@@H](CO)NC(=O)[C@H]1C[C@H](S(=O)(=O)c2cc(C(=O)Nc3ccc(F)c(F)c3)ccc2Cl)C1` [Example 256a]: the EC50 under setting [1] was > 0.2 µM.

In the case of `Cc1cccc([C@H](O)[C@@]2(O)C3CC[C@H]2C[C@H](S(=O)(=O)c2cc(C(=O)Nc4ccc(F)c(F)c4)ccc2Cl)C3)n1` [Example 294a], under setting [1], the EC50 is < 0.104 µM.

Turning to `O=C(Nc1ccc(F)c(F)c1)c1ccc(Cl)c(S(=O)(=O)[C@H]2CC3CCC(C2)[C@]3(O)[C@@H](O)c2ccc(F)cn2)c1` (single isomer, unassigned) [Example 291a], under setting [1], the EC50 is < 0.104 µM.

With `O=C(Nc1ccc(F)c(F)c1)c1ccc(Cl)c(S(=O)(=O)CC2CCC3(CC2)OCCO3)c1` [Example 216], the EC50 under setting [1] lay in the range of 0.1 to 0.2 µM.

`COC(=O)NCC(O)C(=O)NC[C@]1(O)C2CCC1C[C@@H](S(=O)(=O)c1cc(C(=O)Nc3cc(F)c(F)c(F)c3)ccc1Cl)C2` (stereo partly shown) [Example 96]: the concentration giving a half-maximal response (EC50) under setting [1] is 0.1 to 0.2 µM.

With `Cc1ccc(NC(=O)c2ccc(Cl)c(S(=O)(=O)[C@H]3CC4CCC(C3)[C@@]4(C)O)c2)cc1F` [Example 44], the EC50 under setting [1] was > 0.2 µM.

On to `O=C(Nc1ccc(F)c(F)c1)c1ccc(Cl)c(S(=O)(=O)[C@H]2CC3CCC(C2)[C@]3(O)C(O)Cn2cccn2)c1` (stereo partly shown) [Example 314], for which the concentration for a half-maximal effect (EC50) under setting [1] was < 0.104 µM.

Regarding `O=C(Nc1cc(F)c(F)c(F)c1)c1ccc(Cl)c(S(=O)(=O)[C@H]2CC3CCC(C2)[C@]3(O)[C@H](O)[C@@H](O)CO)c1` [Example 51], the EC50 (HepAD38 cells, five days after compound addition, 50% reduction of viral product vs no drug controls, read-out: HepAD38 EC50) is < 0.104 µM.

As for `O=C(Nc1cc(F)c(F)c(F)c1)c1ccc(Cl)c(S(=O)(=O)[C@H]2C3CC[C@H]2C[C@](O)(C(O)C(O)CO)C3)c1` (mixture of isomers) [Example 64], the EC50 under setting [1] lay in the range of 0.1 to 0.2 µM.
